The text below walks through data of patent publication US20250296959A1, “B7-H3 TARGETING PEPTIDES AND CONSTRUCTS THEREOF” (Mariana Oncology Inc., priority 2024, published 2025).

In test [1] the test system is Calu-6 cell line. The experiment in a line: Cell associated (bound) fraction of [177Lu]Lu-labeled peptide in Calu-6 cells. The format is cell-based, Human. The settings on record: 1 hour, 37° C. In short, it runs like this: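 Peptide conjugate was labelled with [177Lu]LuCl3 in ammonium acetate pH ~5 at 80 °C for 17-20 min, with purity checked by RP-HPLC. Calu-6 suspensions (5 million cells/mL in 1% PBSA) were incubated with 0.8 μCi for 1 h at 37 °C. Cell pellets were gamma-counted after two cold PBS/BSA washes, giving the bound fraction against the unbound supernatant plus washes.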

Test [2] has as its system Calu-6 cell line. The experiment in a line: Net internalization of [177Lu]Lu-labeled peptide in Calu-6 cells. The format is cell-based, Human. The settings on record: 1 hour, 37° C., glycine pH 2.5 acid wash. A digest of the protocol: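 Peptide conjugate labeled with [177Lu]LuCl3 at pH ~5, 80 °C, 17–20 min, and purity checked by RP-HPLC. B7-H3-expressing human Calu-6 lung cancer cells at 5 million cells/mL in 1% PBSA. Internalized fraction: counts left after two 3 min 50 mM glycine pH 2.5 washes and NaOH lysis, gamma counted against bound fraction.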

The next test deals with T1, human 4lg B7-H3 (Homo sapiens, UniProt Q5ZPR3).
T1 sequence (Q5ZPR3 29-534): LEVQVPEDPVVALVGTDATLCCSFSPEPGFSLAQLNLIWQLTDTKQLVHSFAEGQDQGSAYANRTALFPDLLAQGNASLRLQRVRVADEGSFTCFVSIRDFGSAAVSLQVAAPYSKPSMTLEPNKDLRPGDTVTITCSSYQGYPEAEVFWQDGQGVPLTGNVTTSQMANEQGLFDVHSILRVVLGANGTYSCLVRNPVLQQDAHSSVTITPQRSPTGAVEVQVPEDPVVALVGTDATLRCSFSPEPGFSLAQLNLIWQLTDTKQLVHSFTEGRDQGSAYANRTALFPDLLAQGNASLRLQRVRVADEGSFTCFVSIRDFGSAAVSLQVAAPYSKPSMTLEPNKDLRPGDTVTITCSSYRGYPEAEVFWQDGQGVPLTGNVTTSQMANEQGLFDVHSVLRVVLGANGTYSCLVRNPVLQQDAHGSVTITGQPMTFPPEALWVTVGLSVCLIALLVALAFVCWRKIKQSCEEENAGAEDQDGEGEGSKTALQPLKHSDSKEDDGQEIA
The experiment in a line: Affinity determination by surface plasmon resonance (SPR) to 4Ig B7-H3. The settings on record: 4Ig B7-H3. For orientation: Surface plasmon resonance follows binding to a sensor surface in real time, without labels.

[3] abbreviates: read-out: SPR KD—37° C., 37° C. flow cell temperature.

Where two headings read alike, the source gives them in different places. Starred links: 1 amine or outer side, 2 acyl side, 3 side chain; linkers in the order of their positions; H or OH if unused. Positions of bridges follow the written chain, without caps; N, C: chain ends. Non-standard residues stand in square brackets, D forms with d. Residues, ends and D or L forms follow the SMILES beside them. *: point of attachment. X2 = O=C(O)CN1CCN(CC(=O)O)CCN(CC(=O)NCCOCCOCCOCCOCC(=O)*)CCN(CC(=O)O)CC1; Ala(1-CH2CO2H-4-piperidyl) = N[C@@H](CC1CCN(CC(=O)O)CC1)C(=O)O; Ala(piperidin-4-yl) = O=C([C@H](CC1CCN([*:3])CC1)N[*:1])[*:2]; DOTA = O=C(O)CN1CCN(CC(=O)O)CCN(CC(=O)*)CCN(CC(=O)O)CC1; Phe(4-NHCONH2) = NC(=O)Nc1ccc(C[C@H](N)C(=O)O)cc1; Trp(5-F) = N[C@@H](Cc1c[nH]c2ccc(F)cc12)C(=O)O; X1 = C[C@@H](c1ccccc1)[C@H](N[*:1])C(=O)[*:2]; Ala(4-THP) = N[C@@H](CC1CCOCC1)C(=O)O; Val(3-OH) = CC(C)(O)[C@H](N)C(=O)O; Tle = CC(C)(C)[C@H](N)C(=O)O; hLeu = CC(C)CC[C@H](N)C(=O)O; Sar = CNCC(=O)O

On to `CC(=O)N[C@@H](CCC(C)C)C(=O)N[C@@H](Cc1ccc(O)cc1)C(=O)N[C@H]1CSSC[C@@H](C(=O)N[C@@H](Cc2c[nH]c3ccc(F)cc23)C(=O)N[C@@H](Cc2ccccc2)C(=O)N[C@H](C(=O)N[C@H](CCCCNC(=O)CN2CCN(CC(=O)O)CCN(CC(=O)O)CCN(CC(=O)O)CC2)C(=O)O)C(C)(C)O)NC(=O)[C@H](Cc2ccc(O)cc2)NC(=O)[C@H](C(C)C)NC(=O)[C@H](CC(=O)O)NC(=O)[C@H](CC2CCOCC2)NC(=O)[C@H](CCCCN)NC(=O)CN(C)C(=O)[C@H](C(C)(C)C)NC1=O` [compound 348, Ac-hLeu-Y-C-Tbg-Sar-K-ThpA-D-V-Y-C-5FW-F-hydroxyVal-dLys(DOTA)-COOH] (Ac-[hLeu]YC[Tle][Sar]K[Ala(4-THP)]DVYC[Trp(5-F)]F[Val(3-OH)][dK](DOTA)-OH; disulfide 3-11), for which the “% cell associated fraction” value with Calu-6 cell line [1] was “B (25<%≤50)”. In addition, the “% net internalization” value in the test with Calu-6 cell line [2] is given as “A (%≤25)”. Also, the dissociation constant (Kd) on human 4lg B7-H3 (setting [3]) is less than 1 nM.
Regarding `CC(=O)N[C@@H](CCC(C)C)C(=O)N[C@@H](Cc1ccc(O)cc1)C(=O)N[C@H]1CSSC[C@@H](C(=O)N[C@@H](Cc2c[nH]c3ccc(F)cc23)C(=O)N[C@@H](Cc2ccccc2)C(=O)N2CCC[C@H]2C(=O)N[C@H](CCCCNC(=O)COCCOCCOCCOCCNC(=O)CN2CCN(CC(=O)O)CCN(CC(=O)O)CCN(CC(=O)O)CC2)C(N)=O)NC(=O)[C@H](Cc2ccc(O)cc2)NC(=O)[C@H](C(C)C)NC(=O)[C@H](CC(=O)O)NC(=O)[C@H](CC2CCOCC2)NC(=O)[C@H](CCCCN)NC(=O)CNC(=O)[C@H](C(C)C)NC1=O` [compound 282, Ac-hLeu-Y-C-V-G-K-ThpA-D-V-Y-C-5FW-F-Pro-dLys(PEG4-DOTA)-CONH2] (Ac-[hLeu]YCVGK[Ala(4-THP)]DVYC[Trp(5-F)]FP[dK](X2)-NH2; disulfide 3-11), in the test on Calu-6 cell line [1], the “% cell associated fraction” value was “B (25<%≤50)”. The “% net internalization” value in the test with Calu-6 cell line [2] is on record as “A (%≤25)”. The same molecule registered a Kd on human 4lg B7-H3 (SPR KD—25° C., 25° C. flow cell temperature) of less than 1 nM.
Turning to `CC(=O)N[C@@H](CCC(C)C)C(=O)N[C@@H](Cc1ccc(O)cc1)C(=O)N[C@H]1CSSC[C@@H](C(=O)N[C@@H](Cc2c[nH]c3ccc(F)cc23)C(=O)N[C@H](C(=O)N[C@H](C(=O)N[C@H](CCCCNC(=O)CN2CCN(CC(=O)O)CCN(CC(=O)O)CCN(CC(=O)O)CC2)C(=O)O)C(C)(C)O)[C@@H](C)c2ccccc2)NC(=O)[C@H](Cc2ccc(NC(N)=O)cc2)NC(=O)[C@H](C(C)C)NC(=O)[C@H](CC(=O)O)NC(=O)[C@H](CC2CCOCC2)NC(=O)[C@H](CC2CCN(CC(=O)O)CC2)NC(=O)CNC(=O)[C@H](C(C)(C)C)NC1=O` [compound 499, Ac-hLeu-Y-C-Tbg-G-Pip(CH2COOH)Ala-ThpA-D-V-Aph(Cbm)-C-5FW-[(2S, 3S)beta-Me-Phe]-hydroxyVal-dLys(DOTA)-COOH] (Ac-[hLeu]YC[Tle]G[Ala(1-CH2CO2H-4-piperidyl)][Ala(4-THP)]DV[Phe(4-NHCONH2)]C[Trp(5-F)][X1][Val(3-OH)][dK](DOTA)-OH; disulfide 3-11), the “% cell associated fraction” value in the test on Calu-6 cell line [1] is recorded as “C (%>50)”. Besides, the “% net internalization” value in the test on Calu-6 cell line [2] is “A (%≤25)”. For the same molecule, the Kd at human 4lg B7-H3 (setting [3]) is less than 1 nM.
On to `CC(=O)N[C@@H](CCC(C)C)C(=O)N[C@@H](Cc1ccc(O)cc1)C(=O)N[C@H]1CSSC[C@@H](C(=O)N[C@@H](Cc2c[nH]c3ccc(F)cc23)C(=O)N[C@H](C(=O)N[C@H](C(=O)N[C@H](CCCCNC(=O)CN2CCN(CC(=O)O)CCN(CC(=O)O)CCN(CC(=O)O)CC2)C(=O)O)C(C)(C)O)[C@@H](C)c2ccccc2)NC(=O)[C@H](Cc2ccc(O)cc2)NC(=O)[C@H](C(C)C)NC(=O)[C@H](CC(=O)O)NC(=O)[C@H](CC2CCOCC2)NC(=O)[C@H](CC2CCNCC2)NC(=O)CNC(=O)[C@H](C(C)(C)C)NC1=O` [compound 433, Ac-hLeu-Y-C-Tbg-G-PipAla-ThpA-D-V-Y-C-5FW-[(2S, 3S)beta-Me-Phe]-hydroxyVal-dLys(DOTA)-COOH] (Ac-[hLeu]YC[Tle]G[Ala(piperidin-4-yl)][Ala(4-THP)]DVYC[Trp(5-F)][X1][Val(3-OH)][dK](DOTA)-OH; disulfide 3-11), for which the “% cell associated fraction” value in the test on Calu-6 cell line [1] was “C (%>50)”. Besides, in the test with Calu-6 cell line [2], the “% net internalization” value is “B (25<%≤50)”. Further, on human 4lg B7-H3 (SPR KD—37° C., 37° C. flow cell temperature), the Kd is less than 1 nM.
On to `CC(=O)N[C@@H](CCC(C)C)C(=O)N[C@@H](Cc1ccc(O)cc1)C(=O)N[C@H]1CSSC[C@@H](C(=O)N[C@@H](Cc2c[nH]c3ccccc23)C(=O)N[C@@H](Cc2ccccc2)C(=O)N[C@H](C(=O)N[C@H](CCCCNC(=O)CN2CCN(CC(=O)O)CCN(CC(=O)O)CCN(CC(=O)O)CC2)C(N)=O)[C@@H](C)O)NC(=O)[C@H](Cc2ccc(O)cc2)NC(=O)[C@H](C(C)C)NC(=O)[C@H](CC(=O)O)NC(=O)[C@H](Cc2ccc(O)cc2)NC(=O)[C@H](CCCCN)NC(=O)CN(C)C(=O)[C@H](C(C)C)NC1=O` [compound 74, Ac-hLeu-Y-C-V-Sar-K-Y-D-V-Y-C-W-F-Thr-dLys(DOTA)-CONH2] (Ac-[hLeu]YCV[Sar]KYDVYCWFT[dK](DOTA)-NH2; disulfide 3-11), for which the “% cell associated fraction” value in the test with Calu-6 cell line [1] is recorded as “B (25<%≤50)”. The “% net internalization” value with Calu-6 cell line [2] is “A (%≤25)”. The Kd at human 4lg B7-H3 (read-out: SPR KD—25° C., 25° C. flow cell temperature) was in the range of 1 to 10 nM.
`CC(=O)N[C@@H](CCC(C)C)C(=O)N[C@@H](Cc1ccc(O)cc1)C(=O)N[C@H]1CSSC[C@@H](C(=O)N[C@@H](Cc2c[nH]c3ccc(F)cc23)C(=O)N[C@@H](Cc2ccccc2)C(=O)N[C@H](C(=O)N[C@H](CCCCNC(=O)CN2CCN(CC(=O)O)CCN(CC(=O)O)CCN(CC(=O)O)CC2)C(=O)O)C(C)(C)O)NC(=O)[C@H](Cc2ccc(O)cc2)NC(=O)[C@H](C(C)C)NC(=O)[C@H](CC(=O)O)NC(=O)[C@H](CC2CCOCC2)NC(=O)[C@H](CC2CCNCC2)NC(=O)CNC(=O)[C@H](C(C)(C)C)NC1=O` [compound 340, Ac-hLeu-Y-C-Tbg-G-PipAla-ThpA-D-V-Y-C-5FW-F-hydroxyVal-dLys(DOTA)-COOH] (Ac-[hLeu]YC[Tle]G[Ala(piperidin-4-yl)][Ala(4-THP)]DVYC[Trp(5-F)]F[Val(3-OH)][dK](DOTA)-OH; disulfide 3-11): the “% cell associated fraction” value in the test on Calu-6 cell line [1] is listed as “C (%>50)”. Moreover, in the test on Calu-6 cell line [2], the “% net internalization” value is recorded as “A (%≤25)”. Besides, on human 4lg B7-H3 (setting [3]), the Kd is less than 1 nM.
For `CC(=O)N[C@@H](CCC(C)C)C(=O)N[C@@H](Cc1ccc(O)cc1)C(=O)N[C@H]1CSSC[C@@H](C(=O)N[C@@H](Cc2c[nH]c3ccc(F)cc23)C(=O)N[C@H](C(=O)N[C@H](C(=O)N[C@H](CCCCNC(=O)CN2CCN(CC(=O)O)CCN(CC(=O)O)CCN(CC(=O)O)CC2)C(=O)O)C(C)(C)O)[C@@H](C)c2ccccc2)NC(=O)[C@H](Cc2ccc(O)cc2)NC(=O)[C@H](C(C)C)NC(=O)[C@H](CC(=O)O)NC(=O)[C@H](CC2CCOCC2)NC(=O)[C@H](CC2CCN(CC(=O)O)CC2)NC(=O)CNC(=O)[C@H](C(C)(C)C)NC1=O` [compound 497, Ac-hLeu-Y-C-Tbg-G-Pip(CH2COOH)Ala-ThpA-D-V-Y-C-5FW-[(2S, 3S)beta-Me-Phe]-hydroxyVal-dLys(DOTA)-COOH] (Ac-[hLeu]YC[Tle]G[Ala(1-CH2CO2H-4-piperidyl)][Ala(4-THP)]DVYC[Trp(5-F)][X1][Val(3-OH)][dK](DOTA)-OH; disulfide 3-11), in that order: “C (%>50)”, “A (%≤25)” and less than 1 nM.

As usually defined, the Kd is the free concentration of one partner at which half of the binding sites on the other are occupied at equilibrium, for simple one-to-one binding.
